What was measured:
[1] = molecular target: T1, GR (Homo sapiens, UniProt P04150); assay: Multi-promoter fluorescent protein reporter compound screen for GR modulators; format: cell-based; parameters: endogenous in cells; host or cells: A549; conditions: A549 cells, library compounds 2.5 μM with dex 100 nM; reporter fluorescence relative to plate mean
T1 sequence (P04150 1-777): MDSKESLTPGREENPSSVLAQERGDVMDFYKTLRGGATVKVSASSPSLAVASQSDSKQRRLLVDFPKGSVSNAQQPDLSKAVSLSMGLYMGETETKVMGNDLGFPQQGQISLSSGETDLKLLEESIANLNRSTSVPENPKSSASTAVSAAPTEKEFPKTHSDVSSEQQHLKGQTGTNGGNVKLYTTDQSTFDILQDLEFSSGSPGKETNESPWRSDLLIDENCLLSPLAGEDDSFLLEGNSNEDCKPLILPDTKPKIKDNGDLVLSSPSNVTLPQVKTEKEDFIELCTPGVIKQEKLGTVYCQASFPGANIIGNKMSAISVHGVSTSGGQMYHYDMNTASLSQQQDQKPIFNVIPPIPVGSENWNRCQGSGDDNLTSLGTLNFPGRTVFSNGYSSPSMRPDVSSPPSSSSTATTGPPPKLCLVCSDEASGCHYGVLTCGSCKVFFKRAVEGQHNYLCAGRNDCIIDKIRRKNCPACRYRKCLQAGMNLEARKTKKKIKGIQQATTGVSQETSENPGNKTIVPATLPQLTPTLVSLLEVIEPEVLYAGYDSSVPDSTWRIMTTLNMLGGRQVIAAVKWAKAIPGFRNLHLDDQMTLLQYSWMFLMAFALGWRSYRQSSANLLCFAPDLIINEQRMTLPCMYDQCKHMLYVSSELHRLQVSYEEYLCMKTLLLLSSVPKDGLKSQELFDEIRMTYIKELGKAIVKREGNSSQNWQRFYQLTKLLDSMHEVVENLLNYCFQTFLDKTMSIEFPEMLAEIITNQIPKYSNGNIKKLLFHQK
Description: Compound Screen. A549 cells were transfected with an equal mixture of pENaC-CFP, pGILZ-YFP, pFKBP5-OFP (1.3 μg each), or with pSV40-ChFP (4 μg). The next day, cells were mixed (˜1.8×10^4 of the cells triple-transfected with pENaC-CFP, pGILZ-YFP, pFKBP5-OFP; ˜2×10^3 cells transfected with pSV40-ChFP) and replated into 96 well plates (Costar 3603). 2 hours later, library compounds (2.5 μM) and dex (100 nM) were added using a Biomek robot. The following day, cells were fixed for 4 minutes in 4% paraformaldehyde and fluorescence was measured sequentially for each reporter using a Safire plate reader (Tecan). Hits were scored based on the mean and standard deviation (s.d.) of the experimental wells on each plate. Criteria for a hit were if one reporter was more than 1.5×s.d. from the mean in duplicate, or if two reporters were more than 0.8×s.d. from the mean in duplicate. If the control SV40-ChFP was more than 2×s.d. from the mean in a single plate, or 0.8×s.d. in duplicate plates (in the same direction as the GR reporters), the well was not scored as a hit.
We used the system of Example 1 to screen a library of 1040 natural products and FDA-approved drugs for modulators of GR signaling (Abbott, A. Nature 417:109). The screen design is outlined in FIG. 2. The pENaC-CFP, pGILZ-YFP, and pFKBP5-OFP reporters indicated GR signaling, while pSV40-mCh, an internal control, excluded non-specific transcription inhibitors and toxins. We screened the library in duplicate in the presence of saturating dex (100 nM). Z′, a function that reflects the ability to discriminate between control and experimental wells (Zhang, J. H. et al., J Biomol Screen 4:67-73 (1999)), was determined for dex treatment of each GR reporter. The Z′ values were: Z′(ENAC-CFP)=0.68; Z′(GILZ-YFP)=0.64; and Z′(FKBP5-OFP)=0.66. These indicate that the screen should efficiently identify compounds that increase or decrease fluorescence from any of the three experimental promoters (Zhang, J. H. et al., J Biomol Screen 4:67-73 (1999)).

[2] = tested on: genes that are regulated by glucocorticoids; assay: In vivo screening: qPCR of glucocorticoid-regulated genes in mouse tissues; conditions: mice, 7.5 mg/kg aclacinomycin, one hour later 2.5 mg/kg dexamethasone, tissues after 6 hours
Description: Mice were injected with 7.5 mg/kg aclacinomycin. One hour later, mice were injected with 2.5 mg/kg dexamethasone. After 6 hours, lungs, liver, heart and skeletal muscle were harvested for RNA preparation. qPCR was performed on isolated RNA from these tissues to analyze expression levels of various genes that are regulated by glucocorticoids.

[3] = molecular target: T1, GR; assay: qPCR of endogenous GR target genes, A549 cells; format: cell-based; parameters: endogenous in cells; host or cells: A549; conditions: with dex, RPL19 reference
Source text: (§1) Quantitative PCR. Total RNA isolation used Trizol and Pure Link (Invitrogen). […] Rpl19 expression was used for data normalization.

[4] = molecular target: T2, GR (Rattus norvegicus, UniProt P06536); assay: Luciferase assays, GR-responsive reporters, U2OS-GR cells; format: cell-based; conditions: pENaC-luc and pSV40-rl, with dex
T2 construct: expressed in transfected cells; host or cells: U2OS-GR
T2 sequence (P06536 1-795): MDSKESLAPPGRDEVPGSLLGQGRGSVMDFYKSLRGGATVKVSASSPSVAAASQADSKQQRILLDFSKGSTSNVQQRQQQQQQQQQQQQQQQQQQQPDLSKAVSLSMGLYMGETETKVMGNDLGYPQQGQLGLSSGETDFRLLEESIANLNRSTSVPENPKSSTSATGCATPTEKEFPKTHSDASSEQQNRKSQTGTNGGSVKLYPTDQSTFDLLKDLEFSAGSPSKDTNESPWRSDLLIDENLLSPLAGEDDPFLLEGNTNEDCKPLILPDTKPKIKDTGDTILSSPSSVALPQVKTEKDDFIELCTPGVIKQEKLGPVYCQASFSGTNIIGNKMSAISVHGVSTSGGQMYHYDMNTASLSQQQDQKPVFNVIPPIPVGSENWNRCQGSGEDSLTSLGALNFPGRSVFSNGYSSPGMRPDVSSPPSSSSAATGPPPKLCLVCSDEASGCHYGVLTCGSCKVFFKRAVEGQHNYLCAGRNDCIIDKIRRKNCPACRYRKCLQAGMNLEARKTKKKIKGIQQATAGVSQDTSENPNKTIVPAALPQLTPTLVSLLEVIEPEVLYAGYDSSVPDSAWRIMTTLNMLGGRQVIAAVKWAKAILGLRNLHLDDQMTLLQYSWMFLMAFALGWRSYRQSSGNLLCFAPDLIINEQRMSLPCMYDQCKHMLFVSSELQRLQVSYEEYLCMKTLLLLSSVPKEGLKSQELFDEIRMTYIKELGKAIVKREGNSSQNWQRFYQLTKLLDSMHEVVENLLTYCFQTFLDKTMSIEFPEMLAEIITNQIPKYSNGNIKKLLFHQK
Description: (§2) Transfections. The day prior to transfection, ˜3×10^5 cells were plated in 6-well dishes. Transfections used Lipofectamine 2000 (Invitrogen). 4 μg of total plasmid DNA were used for each transfection. For A549 cells, 500 μL of DNA/lipofectamine complex was added to 1.5 ml of DMEM with pen/strep and 5% FBS. For U2OS cells, 500 μl of DNA/lipofectamine complex was added to 1.5 ml of Optimem. After 3-4 hours of incubation, media was replaced with standard growth media.
(§3) Luciferase assays. Luciferase assays used the Promega Dual-Luciferase Reporter system. Briefly, cells were transfected with various firefly luciferase plasmids and pSV40-RL at a ratio of 10:1. The day after transfection, cells were split into 96-well dishes and treated with dex and various drugs. Cells were harvested in 50 μl 1XPLB (Promega) 12-18 hr after drug treatment and luciferase assays were performed on 10 μl of lysate. Luminscence was detected using an Ultra Evolution plate reader (Tecan).

[5] = molecular target: T1, GR; assay: Luciferase assays, GR-responsive reporters, A549 cells; format: cell-based; parameters: endogenous in cells; host or cells: A549; conditions: for GR activity (GR-mediated induction of pENaC-luc reporter): pENaC-luc and pSV40-rl; for Dose dependent: whether the drug acted dose-dependently on GR-luciferase reporters
Description: as §2, §3

[6] = tested on: RNA synthesis; conditions: Long et al., Mol Pharmacol 22:152-7 (1982); cited from earlier work
[7] = molecular target: androgen receptor (AR) (Homo sapiens, UniProt P10275); conditions: Hieronymus et al., Cancer Cell 10:321-330 (2006); cited from earlier work
[8] = tested on: GR; assay: qPCR of endogenous GR target genes, cell line not distinguished (FIG. 4B, 5D); format: cell-based; conditions: with dex, 24 hr
Source text: as §1

androgen receptor (AR), sequence (P10275 whole entry, species assumed): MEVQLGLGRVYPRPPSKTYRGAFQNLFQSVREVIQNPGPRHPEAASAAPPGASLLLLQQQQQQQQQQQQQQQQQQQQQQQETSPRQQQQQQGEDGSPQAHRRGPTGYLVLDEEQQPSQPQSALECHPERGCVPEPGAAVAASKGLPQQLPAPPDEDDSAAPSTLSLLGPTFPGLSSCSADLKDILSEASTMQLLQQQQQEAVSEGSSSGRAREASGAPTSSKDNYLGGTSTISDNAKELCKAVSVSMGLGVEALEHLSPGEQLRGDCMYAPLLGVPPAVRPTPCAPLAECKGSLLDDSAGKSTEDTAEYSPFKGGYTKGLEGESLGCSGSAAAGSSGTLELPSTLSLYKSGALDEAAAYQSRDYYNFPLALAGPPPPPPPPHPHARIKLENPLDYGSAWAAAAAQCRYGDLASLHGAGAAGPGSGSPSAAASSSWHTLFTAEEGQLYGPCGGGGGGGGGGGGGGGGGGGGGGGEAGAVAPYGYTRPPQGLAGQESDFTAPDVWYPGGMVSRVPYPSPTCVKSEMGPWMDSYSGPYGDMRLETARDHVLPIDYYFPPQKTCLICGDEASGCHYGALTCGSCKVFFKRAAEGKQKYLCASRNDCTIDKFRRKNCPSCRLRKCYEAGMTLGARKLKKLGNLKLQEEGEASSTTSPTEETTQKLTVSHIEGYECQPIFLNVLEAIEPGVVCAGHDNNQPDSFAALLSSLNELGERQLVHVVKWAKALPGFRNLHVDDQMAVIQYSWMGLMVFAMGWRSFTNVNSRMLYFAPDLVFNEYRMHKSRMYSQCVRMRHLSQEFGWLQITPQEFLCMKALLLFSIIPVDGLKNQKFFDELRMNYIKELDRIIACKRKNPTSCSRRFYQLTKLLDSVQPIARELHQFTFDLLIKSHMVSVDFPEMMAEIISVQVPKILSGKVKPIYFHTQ

Compound | ENaC-CFP [1] | FKBP5-OFP [1] | GILZ-YFP [1] | activation of FKBP5 by dexamethasone ([2]; liver and lung (FIGS. 6-7)) | activation of KLF15 by dexamethasone ([2]; lung (FIG. 8)) | repression of the cytokine CCL2 by dexamethasone ([2]; lung (FIG. 9)) | expression of endogenous GR target genes (relative mRNA, qPCR) [3] | GR activity (luciferase reporter) [4] | pSV40-luc activity ([5]; A549 cells, low doses of Acl, dex-unresponsive reporter) | GR activity (GR-mediated induction of pENaC-luc reporter) ([5]; A549 cells, with dex) | effect on GR-dependent reporter pENaC-luc compared with GR-independent constitutive reporter pSV40-rl ([5]; A549 cells, with dex) | Dose dependent [5] | IC50 for inhibition of RNA synthesis, compared with aclacinomycin [6] | androgen receptor (AR) signaling [7] | expression of endogenous GR target genes (qPCR), overall [8] | induction of endogenous ENaC (qPCR) [8] | Dose dependent ([5]; listed as pararosaniline)
CC[C@@]1(O)C[C@H](O[C@H]2C[C@H](N(C)C)[C@H](O[C@H]3C[C@H](O)[C@H](O[C@H]4CCC(=O)[C@H](C)O4)[C@H](C)O3)[C@H](C)O2)c2c(cc3c(c2O)C(=O)c2c(O)cccc2C3=O)[C@H]1C(=O)OC [Aclacinomycin] | ↓↓↓^b (more than 2 standard deviations (s.d.) less than the mean (↓↓↓)) | ↓↓↓ (more than 2 standard deviations (s.d.) less than the mean (↓↓↓)) | ↓↓↓ (more than 2 standard deviations (s.d.) less than the mean (↓↓↓)) | blocked the activation | blocked the activation | did not inhibit repression | inhibited GR at the tested promoters | inhibited GR | Increases | antagonists of GR | reduced GR activation of pENaC-luc much more than the constitutive reporter | yes | – | – | – | – | –
CC[C@@]1(O)C[C@H](O[C@H]2C[C@H](N(C)C)[C@H](O[C@H]3C[C@H](O)[C@H](O[C@H]4C[C@H](O)[C@H](O)[C@H](C)O4)[C@H](C)O3)[C@H](C)O2)c2c(cc3c(c2O)C(=O)c2c(O)ccc(O)c2C3=O)[C@H]1C(=O)OC [marcellomycin] | – | – | – | – | – | – | – | – | – | no impact on GR-mediated induction of the reporter | – | – | similar | – | – | – | –
N=C1C=CC(=C(c2ccc(N)cc2)c2ccc(N)cc2)C=C1 [Pararosaniline] | ↓ (0.8 to 2 s.d. less than the mean (↓)) | No effect | ↓ (0.8 to 2 s.d. less than the mean (↓)) | – | – | – | – | – | – | – | – | yes | – | inhibit | selectively modulated endogenous GR target genes | selectively inhibited the induction of endogenous ENaC transcription in comparison to FKBP5 | dose dependent effects

From patent US8940705B2, “Method of treating disease and selectively modulating transcriptional regulation by a glucocorticoid receptor by administering aclacinomycin and dexamethasone” (The Regents of the University of California, priority 2009, dated 2015)
